Earlier results in Sander's compilation of Henry's law constants (doi:10.1021/cr60306a003).

Assay: Henry solubility constant Hcp at 298.15 K (mol/(m3 Pa))
Settings: reference: Wilhelm et al. (1977); cited value

SMILES | Henry solubility constant Hcp
CC(C)C [2-methylpropane] | 8e-06
FS(F)(F)(F)(F)F [sulfur hexafluoride] | 2.4e-06
[N-]=[N+]=O [dinitrogen monoxide] | 0.00024
C=C [ethene] | 4.7e-05
C#CC=C [3-buten-1-yne] | 0.00037
CN [methanamine] | 0.35
FN(F)N(F)F [dinitrogen tetrafluoride] | 8.4e-06
FC(F)(F)Cl [chlorotrifluoromethane] | 9.3e-06
FC(F)(Cl)Cl [dichlorodifluoromethane] | 2.1e-05
C#C [ethyne] | 0.00041
FC(F)F [trifluoromethane] | 0.00013
FCCl [chlorofluoromethane] | 0.0015
O=O [oxygen] | 1.3e-05
FC(F)=C(F)F [tetrafluoroethene] | 1.6e-05
C=C(C)C [2-methylpropene] | 5.6e-05
[C-]#[O+] [carbon monoxide] | 9.4e-06
C=CC [propene] | 7.3e-05
C#CCC [1-butyne] | 0.00075
[Ar] [argon] | 1.4e-05
P [phosphorus trihydride] | 8.1e-05
O=C=O [carbon dioxide] | 0.00033
O=S=O [sulfur dioxide] | 0.014
[Xe] [xenon] | 4.2e-05

SMILES | Henry solubility constant Hcp
CBr [bromomethane] | 0.0016
[O][Cl+][O-] [chlorine dioxide] | 0.01
CF [fluoromethane] | 0.00058
C=CCl [chloroethene] | 0.00045
FC(F)Cl [chlorodifluoromethane] | 0.00034
C=CCC [1-butene] | 0.00013
FC(F)=C(F)C(F)(F)F [hexafluoropropene] | 2.9e-06
[Kr] [krypton] | 2.5e-05
C1CC1 [cyclopropane] | 0.00011
CNC [dimethylamine] | 0.3
FC(F)(F)C(F)(F)Cl [chloropentafluoroethane] | 3.4e-06
O=C=S [carbon oxide sulfide] | 0.00021
CCCC [butane] | 1.2e-05
[Rn] [radon] | 9.2e-05
FN(F)F [nitrogen trifluoride] | 7.9e-06
FC(F)(F)F [tetrafluoromethane] | 2.1e-06
C=CC=C [1,3-butadiene] | 0.00014
O=[O+][O-] [ozone] | 0.00013
[HH] [hydrogen] | 7.7e-06
[Ne] [neon] | 4.4e-06
CCN [ethanamine] | 0.35
CC(C)(C)C [dimethylpropane] | 5.9e-06
[He] [helium] | 3.8e-06
